The first assay concerns Fer kinase domain. The experiment in a line: pTyr-Var library bacterial peptide display kinase screen (enrichment scores). Type of assay: biochemical, mouse. The settings on record: sheet "Fer"; value of the variant peptide against its reference peptide in the pTyr-Var library screen with Fer.
On to PESIMYWKFTT [NTRK3_Y744_R745W], for which the Screen is 1.613.
On the same count and under the same terms, for EPSLVYMVTKI [CPS1_Y768_D767V] the value was 1.098; for QNKEDYDGLKE [GSTO1_Y139_A140D], -0.3459.

Staying with this assay, now noted: sheet "Fer"; variant peptide relative to its reference peptide, pTyr-Var library screen enrichment.
For DTFDPYLDIAL [USP36_Y268_V271I_YF], the Screen is reported as -0.4655.

In a further assay the target is c-Src kinase domain (Homo sapiens, UniProt P12931). Described as above. Type of assay: biochemical. To be noted: pTyr-Var library screen with c-Src; sheet "Src substrates": annotated Src substrate sites, 11-residue peptide SITE_+/-5_AA; mean.
With EALDFYGEVRT, the “Enrichment score (mean)” value is 1.015.

The assay is the same for the next values; noted with them: sheet "Src"; effect of the variant peptide relative to its reference peptide in the pTyr-Var library screen.
Regarding FQKNIYSEEPR [LMNA_Y211_L215P], the Screen is recorded as -0.2654.
In the case of PFAEPYADFGG [APBA1_Y187_S184A_YF], the Screen is -0.451.
With IPGGIYNADLN [CST4_Y35_D36N], the Screen is listed as -0.256.
FKEIVYAVSSD [DCX_Y70_G67E] came in with a Screen of 2.95.
The sequence CEETFYTMKMN [MASP2_Y401_V405M] registered a Screen of 0.9168.
Same read-out and setting: to VITTLYIGFLG [KCNQ1_Y267_L262V] belongs -0.844.
The same measure, in the same setting: to LITILYIGFLG [KCNQ1_Y267_T265I] belongs -1.468; to RKPDIYGRLAS [MCM4_Y459_E460G], 0.1835.
On the same count and under the same terms, for RMDGKYACSFT [FLNB_Y704_T703K_YF] the value was -2.226; for KVALVYGQMNQ [ATP5F1B_Y269_E274Q], 0.6915; for DCAAIYGNEPD [AKR1A1_Y50_E55D], 0.2268.

The same assay, now with this note: sheet "Src"; variant peptide versus its reference peptide in the pTyr-Var library screen.
Take IDSTPYGQWFE [RPS8_Y109_R110G_YF]: the Screen was 3.305.
On the same count and under the same terms, for PESIMYWKFTT [NTRK3_Y744_R745W] the value was 2.713; for KMKGDYFRSLA [YWHAG_Y130_Y133S_YF], -2.206.
On the same count and under the same terms, to PLDGEYFTLHI [TP53_Y327_Q331H] belongs -0.3825.
Turning to PLDGEYFTLRI [TP53_Y327_Q331R], the Screen is on record as -0.2935.
Same read-out and setting: for LITLVYGCSRQ [TMPRSS6_Y290_S288L] the value was -0.7056; for PLQNTYNFNVL [SLC4A1_Y553_K551N_YF], 2.669.
Still for that read-out and setting: to SILAVYSKDIF [PANK2_Y400_N404I_YF] belongs -0.2771; to SVTCPYSPALN [TP53_Y126_T125P], 1.73; to RRIHSYRRHLW [VHL_Y112_G114R], -2.73.
Take LVKDPYVMFPQ [PLEKHG2_Y489_P484L]: the Screen is 0.6915.
Still for that read-out and setting: to DFCDLYGGEKF [PTPN11_Y66_Y63C_YF] belongs -0.008516.
Still for that read-out and setting: for DLDFTYIFPNI [PTEN_Y27_L25F_YF] the value was -0.8557; for RGDVIYKGFED [NFU1_Y194_G189R], -0.4435; for HDRNTYEKFLE [TF_Y666_G671E_YF], -1.841.
On the same count and under the same terms, for SDVDLYQVRIA [PSMD9_Y70_T74I] the value was 0.1663; for DFFDLYGGEKL [PTPN11_Y66_F71L_YF], 0.4429; for QGCGIYKDFFR [PLA2G2D_Y82_S80G_YF], -0.1018.
In turn, LRFDSYWSFCN [SLC20A2_Y433_S434W_YF] came in with a Screen of 2.108.
Regarding PRIHSYRGHLW [VHL_Y112_R107P], the Screen is listed as -2.322.
Same read-out and setting: to MVSLFYGTAIF [OR10C1_Y251_L255I] belongs -0.3478.

In the next assay the test system is EPHB1 kinase domain. The assay is described as above. Type of assay: biochemical, human. The settings on record: sheet "EPHB1"; variant seq vs reference seq; bacterial peptide display enrichment.
RRIHSYRRHLW [VHL_Y112_G114R]: the “Screen (variant relative to reference peptide, measured in the pTyr-Var library screen)” value was -1.158.
On to PRIHSYRGHLW [VHL_Y112_R107P], for which the “Screen (variant relative to reference peptide, measured in the pTyr-Var library screen)” value is on record as -0.7646.

Still in this assay, the particulars now being: sheet EPHB1; effect of the variant peptide relative to its reference peptide in the pTyr-Var library screen (enrichment scores).
On to LGSVVYAQSKE [KCNQ2_Y226_H228Q], for which the Screen is 1.461.
On the same count and under the same terms, for HRNNNYEPNLF [BRCA2_Y57_K53R] the value was -0.3671; for NRLTDYFELLL [BBS10_Y536_P539L_YF], -2.013; for LAIEWYVVVCK [RHO_Y136_R135W], 0.5887.
The same measure, in the same setting: to DLDFTYIFPNI [PTEN_Y27_L25F_YF] belongs -1.115; to LGSWTYPKTVS [ROS1_Y144_T145P], -2.133.

The next assay concerns the target T1, c-Abl kinase domain (Mus musculus, UniProt P00520).
T1 sequence (P00520 242-493 limits assumed): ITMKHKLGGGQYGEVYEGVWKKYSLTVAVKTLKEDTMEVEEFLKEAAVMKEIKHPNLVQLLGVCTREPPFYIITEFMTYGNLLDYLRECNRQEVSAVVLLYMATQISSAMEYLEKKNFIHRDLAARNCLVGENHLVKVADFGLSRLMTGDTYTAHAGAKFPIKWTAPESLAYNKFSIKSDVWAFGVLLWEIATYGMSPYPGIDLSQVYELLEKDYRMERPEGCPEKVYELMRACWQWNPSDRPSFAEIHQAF
Described as above. The settings on record: fig5-data2, sheet "Abl"; Screen for the variant/reference peptide pair, pTyr-Var library. Type of assay: biochemical.
Regarding MNLLGYRQVRS [CHST4_Y359_H361Q], the Screen is listed as -1.908.
Still for that read-out and setting: to CGTPDYIDPEI [PRKCG_Y521_A523D] belongs -0.1317; to LVQAEYWHDRI [PPT1_Y185_P189R], 0.6024.
Regarding KKLAEYGPQGK [CLCA1_Y147_R152K], the Screen was 0.7729.
Still for that read-out and setting: to FLAVGYHKPRI [IDS_Y225_H229R] belongs -0.1841.
Regarding RFGRKYKKVRF [F8_Y442_I438F], the Screen is -0.368.
Same read-out and setting: for DKATEYSQFMR [MAX_Y70_I71S_YF] the value was -0.2428.
Same read-out and setting: to TEGNGYISFNE [LCP1_Y28_D24E] belongs 0.5821.
DRLASYLDKLR [KRT12_Y139_V143L] had a Screen of 0.402.
The sequence RQQEVYLLFKQ [RARRES1_Y159_D158V_YF] registered a Screen of 1.344.
Still for that read-out and setting: for IGHGSYAKVLL [PRKCZ_Y263_R260H] the value was 0.1947.
In turn, RVFIKYLPEWT [PSEN1_Y240_L235R] had a Screen of 0.4533.
Same read-out and setting: for IMVFVYCRVFQ [ADRB2_Y219_S220C] the value was 1.764.
As for LVKDPYVMFPQ [PLEKHG2_Y489_P484L], the Screen was found to be 1.829.
In turn, LLQAEYWHDPI [PPT1_Y185_V181L] showed a Screen of 0.8908.
The sequence LEVETYRRLLD [KRT12_Y429_I426V] returned a Screen of 0.412.
Still for that read-out and setting: for FAANFYKLLGN [ROR2_Y646_D644N_YF] the value was 1.009; for SGADSYEMEED [EGFR_Y316_C311S], 1.025.
Still for that read-out and setting: for ERIEFYELNKK [PMM2_Y145_D148N] the value was -0.6166.
GVMLLYFGRFN [ADGRD1_Y85_T82M_YF]: the Screen is on record as 0.9615.
On the same count and under the same terms, for FQRITYHNWRH [PDE6B_Y556_R552Q_YF] the value was 0.8312; for KRRGPYEMSPS [PLPP7_Y172_T174M], -0.6744; for IPTPAYQSLPA [PDCD6IP_Y727_S730L], -0.8712.
HVSISYDIPLT [GAB1_Y307_P311L] returned a Screen of 1.089.
On the same count and under the same terms, to KSMFVYCTPNK [ATP2A2_Y497_S495F] belongs 1.832; to FIATQYSLCPR [LBR_Y166_R169C_YF], -1.302.
As for KRGIDYILWHM [FRMD1_Y225_R228W], the Screen amounted to 2.918.
For the sequence WQQQSYLDSEI [CTNNB1_Y30_G34E], the Screen stood at 2.603.
On the same count and under the same terms, for MIHSAYALGGL [CPS1_Y590_R587H] the value was -0.66; for EAIAKYDLKAT [GRB2_Y7_F9L], -1.289; for DFFDLYGGEKL [PTPN11_Y66_F71L_YF], -1.348.
In the case of CEAVEYLESKQ [BTK_Y511_M509V], the Screen stood at 1.602.
On the same count and under the same terms, for FSIDFYRVGGH [NTRK2_Y707_T704I_YF] the value was -1.897.
As to SLIDGYFRLTE [JAK2_Y372_A377E_YF], the Screen is on record as -1.303.

The same assay, now with this note: sheet "Abl"; effect of variant peptide relative to its reference peptide in pTyr-Var library screen (enrichment).
Regarding KMKGDYFRSLA [YWHAG_Y130_Y133S_YF], the Screen is given as -4.108.
Same read-out and setting: for KDQPDYKFQPR [SOX9_Y172_H169Q_YF] the value was -0.1662; for ERRLIYASDPK [VPS13D_Y864_T865A], -3.237.
Consider IEPCIYIPEDD [XPNPEP3_Y455_G453C], for which the Screen is -2.393.
The same measure, in the same setting: for TENAGYFFRIS [TTN_Y31721_V31725I_YF] the value was -1.38; for RLGDLYKEEMR [VIM_Y150_E151K], 1.898; for AVDDKYSRREE [SART1_Y685_I681V], 0.5221.

These data come from article PMC10065799, “High-throughput profiling of sequence recognition by tyrosine kinases and SH2 domains using bacterial peptide display” (eLife, 2023).
